Laboratory results from patent US9249148B2, “Tris(hetero)arylpyrazoles and use thereof” (AICURIS GMBH & CO. KG, priority 2012, dated 2016).

Assays:
Format in all cases: cell-based
[1] = tested on: HIV-1NL4-3 wildtype; test: Luminescence Reduction Assay, luciferase reporter virus in MT4 cells; details: Human immunodeficiency virus 1, MT4, read-out: EC50 (μM) MT4 cells HIV-1NL4-3 wildtype 2% FBS
Description: (§1) For this assay, HIV-1NL4-3 reporter viruses are used which carry the luciferase164 gene (lu164) in place of the nef gene. The viruses are generated by transfection of 293T cells with the corresponding proviral pNL4-3 plasmid (Lipofectamine Reagent, Invitrogen, Karlsruhe, Germany). Starting from the proviral plasmid DNA, viruses with defined resistance mutations (single or combined) are produced in the reverse transcriptase gene using the “QuikChange II XL Site-Directed Mutagenesis Kit” (Stratagene, Cedar Creek, Tex., USA). Resistance mutations include, among others: L74V, A98G, A98S, L100I, K101E, K103N, V106A, V106I, V106M, V108I, V108A, E138K, V179I, V179D, V179E, Y181C, Y181I, Y188L, G190A, G1905, H221Y, P225H, F227C, F227L, F227V, M230I, M230L, L234I, P236L, N348I, T369A, T369I, T369V. MT4 cells infected with these reporter viruses (NIH AIDS Research and Reference Reagent Program) secrete luciferase into the medium, which enables the luminometric quantification of the virus replication.
(§2) For starting a 96-well MTP, 3 million MT4 cells are pelleted, suspended in 1 ml RPMI 1640 medium without phenol red (Invitrogen, Karlsruhe, Germany)/10% FBS/2 mM L-glutamine/1% Pen/Strep (Invitrogen, Karlsruhe, Germany), and incubated for 2 hours at 37° C. with a suitable quantity of the relevant HIV-1NL4-3 reporter virus (pellet infection). Non-adsorbed viruses are then washed out, and the infected cells are pelleted again and suspended in 8 ml RPMI 1640 medium without phenol red/2% or 10% FBS/2 mM L-glutamine/1% Pen/Strep. From this, 90 μl per well is pipetted into a white 96-well MTP to 10 μl of test substance at a suitable level of dilution. In order to avoid edge effects, the edge wells of the MTP are not used for substance dilutions. The second vertical row of the MTP contains only infected cells (virus control) and the eleventh vertical row only non-infected cells (cell control), each in RPMI 1640 medium without phenol red/2% or 10% FBS/2 mM L-glutamine/1% Pen/Strep. The remaining wells of the MTP contain the compounds in accordance with the invention in various concentrations, starting from the third vertical row, from which the test substances are diluted in 3-step sequences up to the tenth vertical row by a factor of 3^7. The test substances are dissolved in DMSO; the final DMSO concentration in the test formulation is 1%.

[2] = tested on: HIV-1NL4-3 K103N-Y181C; test: Luminescence Reduction Assay, luciferase reporter virus with resistance mutations in MT4 cells; details: Human immunodeficiency virus 1, MT4, read-out: EC50 (μM) MT4 cells HIV-1NL4-3 K103N-Y181C 2% FBS
Description: as §1, §2

[3] = tested on: HIV-1LAI wildtype; test: alamarBlue Viability Assay with HIV-1LAI-infected MT4 cells; details: Human immunodeficiency virus 1, 10% FBS
Procedure: For starting a 96-well MTP, 3 million PBLs are pelleted, suspended in 1 ml RPMI 1640 medium/10% FBS/2 mM L-glutamine/1% Pen/Strep and incubated for 2 hours at 37° C. with a suitable quantity of the relevant HIV-1LAI (NIH AIDS Research & Reference Reagent Program, Germantown, USA) (pellet infection). Non-adsorbed viruses are then washed out, and the infected cells pelleted again and suspended in 18 ml RPMI 1640 medium/10% FBS/2 mM L-glutamine/1% Pen/Strep/Interleukin-2 (40 U/ml). From this, 180 μl per well is pipetted into a 96-well MTP to 20 μl of test substance at a suitable level of dilution. Alternatively, the HIV is added after preparation of the substance dilutes in the MTP together with the cells, and is not washed out (supernatant infection). In order to avoid edge effects, the edge wells of the MTP are not used for substance dilutions. The second vertical row of the MTP contains only infected cells (virus control) and the eleventh vertical row only non-infected cells (cell control), each in RPMI 1640 medium/10% FBS/2 mM L-glutamine/1% Pen/Strep/Interleukin-2 (40 U/ml). The remaining wells of the MTP contain the compounds in accordance with the invention in various concentrations, starting from the third vertical row, from which the test substances are diluted in 3-step sequences up to the tenth vertical row by a factor of 3^7. The test substances are dissolved in DMSO; the final DMSO concentration in the test preparation is 1%. The test samples are incubated for 5 days at 37° C./5% CO2. After 5 to 7 days, 50 μl of cell-free supernatant is removed from each well to determine its p24 content using p24 ELISA (HIV-1 p24CA Antigen Capture Assay Kit, NCI-Frederick Cancer Research and Development Center, Frederick, USA). From the resulting values of the photometric analysis (450/620 nm), the EC50 values of the test substances are determined from the resulting dose-response curves using the Prism4 software (GraphPad, San Diego, Calif.) as the concentration of treated infected cells, where the p24 quantity is 50% of the untreated infected cells.
Alternatively, MT4 cells are used in place of PBLs for testing the test substances. HIV-1LAI-infected MT4 cells (MOI 0.01, supernatant infection) are incubated in accordance with the procedure described above in RPMI 1640 medium using 2% or 10% FKS/2 mM L-glutamine/1% Pen/Strep in the presence of the test substances for 5 days at 37° C./5% CO2 (10 μl diluted substance and 90 μl cells/virus per well). 10 μl alamarBlue (Invitrogen, Karlsruhe, Germany) is then added per well and the MTPs are incubated for 3 hours at 37° C. before fluorimetric evaluation is performed (544/590 nm). Using quattroWorkflow software (Quattroresearch, Martinsried, Germany), the EC50 values of the test substances are determined from the resulting dose-response curves as the concentration of treated infected cells in which the fluorescence is 50% of that of the untreated, non-infected cells.

In the case of `O=C1NCc2c1ccnc2-c1cc(-c2cc(Br)cc(OC(F)(F)F)c2)n(-c2ccc(F)c(Cl)c2)n1` [Example 12, 4-{5-[3-bromo-5-(trifluoromethoxy)phenyl]-1-(3-chloro-4-fluorophenyl)-1H-pyrazole-3-yl}-2,3-dihydro-1H-pyrrolo[3,4-c]pyridine-1-one], the EC50 [1] is reported as 0.0089 µM, the EC50 [2] is reported as 0.012 µM and the EC50 [3] is reported as 0.0974 µM.

In the case of `O=C1NCc2c1ccnc2-c1cc(-c2cc(Br)cc(OC(F)(F)F)c2)n(-c2cccnc2)n1` [Example 13, 4-{5-[3-bromo-5-(trifluoromethoxy)phenyl]-1-(pyridine-3-yl)-1H-pyrazole-3-yl}-2,3-dihydro-1H-pyrrolo[3,4-c]pyridine-1-one], the EC50 [1] is reported as 0.0011 µM, the EC50 [2] is reported as 0.0025 µM and the EC50 [3] is reported as 0.0086 µM.

Molecule `O=C1NCc2c1ccnc2-c1cc(-c2cc(F)cc(OC(F)F)c2)n(-c2cccnc2)n1` [Example 14, 4-{5-[3-(difluoromethoxy)-5-fluorophenyl]-1-(pyridine-3-yl)-1H-pyrazole-3-yl}-2,3-dihydro-1H-pyrrolo[3,4-c]pyridine-1-one] has an EC50 [1] of 0.001 µM, an EC50 [2] of 0.0097 µM and an EC50 [3] of 0.0053 µM.

In the case of `O=C1NCc2c1ccnc2-c1cc(-c2cc(F)cc(OC(F)F)c2)n(-c2ccc(F)c(Cl)c2)n1` [Example 15, 4-{1-(3-chloro-4-fluorophenyl)-5-[3-(difluoromethoxy)-5-fluorophenyl]-1H-pyrazole-3-yl}-2,3-dihydro-1H-pyrrolo[3,4-c]pyridine-1-one], the EC50 [1] is reported as 0.0044 µM, the EC50 [2] is reported as 0.0085 µM and the EC50 [3] is reported as 0.0171 µM.

Work on `O=C1NCc2c1ccnc2-c1cc(-c2cc(Cl)cc(OC(F)F)c2)n(-c2cccnc2)n1` [Example 16, 4-{5-[3-chloro-5-(difluoromethoxy)phenyl]-1-(pyridine-3-yl)-1H-pyrazole-3-yl}-2,3-dihydro-1H-pyrrolo[3,4-c]pyridine-1-one] yielded an EC50 [1] of 0.0005 µM, an EC50 [2] of 0.0026 µM and an EC50 [3] of 0.0023 µM.

`O=C1NCc2c1ccnc2-c1cc(-c2cc(Cl)cc(OC(F)F)c2)n(-c2ccnc(Cl)c2)n1` [Example 17, 4-{5-[3-chloro-5-(difluoromethoxy)phenyl]-1-(2-chloropyridine-4-yl)-1H-pyrazole-3-yl}-2,3-dihydro-1H-pyrrolo[3,4-c]pyridine-1-one] gave an EC50 [1] of 0.0011 µM, an EC50 [2] of 0.0049 µM and an EC50 [3] of 0.0086 µM.

Work on `O=C1NCc2c1cccc2-c1cc(-c2cc(Cl)cc(OC(F)F)c2)n(-c2cccnc2)n1` [Example 18, 4-{5-[3-chloro-5-(difluoromethoxy)phenyl]-1-(pyridine-3-yl)-1H-pyrazole-3-yl}-2,3-dihydro-1H-isoindole-1-one] yielded an EC50 [1] of 0.0056 µM, an EC50 [2] of 0.013 µM and an EC50 [3] of 0.0177 µM.

For `O=C1NCc2c1ccnc2-c1cc(-c2cc(Br)cc(OC(F)F)c2)n(-c2cccnc2)n1` [Example 19, 4-{5-[3-bromo-5-(difluoromethoxy)phenyl]-1-(pyridine-3-yl)-1H-pyrazole-3-yl}-2,3-dihydro-1H-pyrrolo[3,4-c]pyridine-1-one], the EC50 [1] was 0.0003 µM, the EC50 [2] was 0.0019 µM and the EC50 [3] was 0.0028 µM.

Molecule `O=C1NCc2c1ccnc2-c1cc(-c2cc(Br)cc(OC(F)F)c2)n(-c2ccnc(Cl)c2)n1` [Example 20, 4-{5-[3-bromo-5-(difluoromethoxy)phenyl]-1-(2-chloropyridine-4-yl)-1H-pyrazole-3-yl}-2,3-dihydro-1H-pyrrolo[3,4-c]pyridine-1-one] has an EC50 [1] of 0.001 µM, an EC50 [2] of 0.004 µM and an EC50 [3] of 0.0118 µM.

`O=C1NCc2c1cccc2-c1cc(-c2cc(Br)cc(OC(F)F)c2)n(-c2cccnc2)n1` [Example 21, 4-{5-[3-bromo-5-(difluoromethoxy)phenyl]-1-(pyridine-3-yl)-1H-pyrazole-3-yl}-2,3-dihydro-1H-isoindole-1-one] gave an EC50 [1] of 0.0063 µM, an EC50 [2] of 0.0283 µM and an EC50 [3] of 0.0325 µM.

Molecule `Cc1cc(F)cc(-c2cc(-c3nccc4c3CNC4=O)nn2-c2ccc(F)c(Cl)c2)c1` [Example 22] has an EC50 [1] of 0.0009 µM, an EC50 [2] of 0.0077 µM and an EC50 [3] of 0.0245 µM.

`Cc1cc(F)cc(-c2cc(-c3cccc4c3CNC4=O)nn2-c2ccc(F)c(Cl)c2)c1` [Example 23] showed an EC50 [1] of 0.015 µM, an EC50 [2] of 0.0565 µM and an EC50 [3] of 0.0983 µM.

`N#Cc1cc(-n2nc(-c3nccc4c3CNC4=O)cc2-c2cc(F)cc(Cl)c2)ccc1F` [Example 24] was tested, and the EC50 [1] was 0.0002 µM, the EC50 [2] was 0.0003 µM and the EC50 [3] was 0.0006 µM.

With `N#Cc1cc(-n2nc(-c3cccc4c3CNC4=O)cc2-c2cc(F)cc(Cl)c2)ccc1F` [Example 25] the EC50 [1] was 0.0009 µM, the EC50 [2] was 0.0112 µM and the EC50 [3] was 0.0107 µM.

With `O=C1NCc2c1ccnc2-c1cc(-c2cc(F)cc(Cl)c2)n(-c2cccc(Cl)c2)n1` [Example 26] the EC50 [1] was 0.0017 µM, the EC50 [2] was 0.0208 µM and the EC50 [3] was 0.0153 µM.

In the case of `COc1cc(OC(F)(F)F)cc(-c2cc(-c3nccc4c3CNC4=O)nn2-c2ccc(F)c(Cl)c2)c1` [Example 27], the EC50 [1] is reported as 0.0384 µM, the EC50 [2] is reported as 0.0219 µM and the EC50 [3] is reported as 0.148 µM.

`Cc1ccc(-n2nc(-c3nccc4c3CNC4=O)cc2-c2cc(F)cc(Cl)c2)cc1Cl` [Example 28] was tested, and the EC50 [1] was 0.0172 µM, the EC50 [2] was 0.0291 µM and the EC50 [3] was 0.0876 µM.

For `O=c1[nH][nH]c2c(-c3cc(-c4cc(F)cc(Cl)c4)n(-c4ccc(F)c(Cl)c4)n3)cccc12` [Example 29], the EC50 [1] was 0.39 µM, the EC50 [2] was 1.22 µM and the EC50 [3] was 2.06 µM.

`O=C1NCc2c1ccnc2-c1cc(-c2cc(Cl)cc(C(F)(F)F)c2)n(-c2ccc(F)c(Cl)c2)n1` [Example 30] was tested, and the EC50 [1] was 0.0075 µM, the EC50 [2] was 0.011 µM and the EC50 [3] was 0.0881 µM.

`O=C1NCc2c1ccnc2-c1cc(-c2cncc(Cl)c2)n(-c2ccc(F)c(Cl)c2)n1` [Example 31] showed an EC50 [1] of 0.0008 µM, an EC50 [2] of 0.0024 µM and an EC50 [3] of 0.0041 µM.

Work on `O=C1NCc2c1cccc2-c1cc(-c2cncc(Cl)c2)n(-c2ccc(F)c(Cl)c2)n1` [Example 32] yielded an EC50 [1] of 0.0069 µM, an EC50 [2] of 0.0383 µM and an EC50 [3] of 0.0273 µM.

With `O=C1NCc2c1ccnc2-c1cc(-c2cccc(F)c2F)n(-c2ccc(F)c(Cl)c2)n1` [Example 33] the EC50 [1] was 0.0227 µM, the EC50 [2] was 0.061 µM and the EC50 [3] was 0.0641 µM.

`O=C1NCc2c1cccc2-c1cc(-c2cccc(F)c2F)n(-c2ccc(F)c(Cl)c2)n1` [Example 34] was tested, and the EC50 [1] was 0.131 µM, the EC50 [2] was 0.458 µM and the EC50 [3] was 0.75 µM.

`N#Cc1cccc(-c2cc(-c3nccc4c3CNC4=O)nn2-c2ccc(F)cc2)c1` [Example 35] gave an EC50 [1] of 0.0593 µM, an EC50 [2] of 0.0317 µM and an EC50 [3] of 0.15 µM.
